Source: patent US20110136897A1, “TOLL-LIKE RECEPTOR 9 AGONISTS FOR THE TREATMENT OF ANXIETY-RELATED DISORDERS AND INFLAMMATORY DISORDERS” (YISSUM RESEARCH DEVELOPMENT COMPANY OF THE HEBREW …, priority 2008, published 2011)

How the values were obtained:
RAW264.7 cells [1] = assay: Nitric oxide (NO) production, Griess reaction; format: cell-based, mouse; settings: 24 hours
Protocol: The mouse macrophage cell line RAW 264.7 (ATCC, Bethesda, Md.) was cultured in Dulbecco's modified Eagle's medium (DMEM) (Biological Industries) supplemented with 10% heat-inactivated fetal bovine serum (Biological Industries, Israel), 100 μg/ml streptomycin, 100 U/ml penicillin (Sigma) and 2 mM 1-glutamine (Biological Industries) at 37° C. in a humidified atmosphere with 5% CO2.
Determination of nitric oxide (NO) production: Nitrite concentration in the medium of cultured cells was measured as an indicator of NO production according to the Griess reaction. 1×10^5 mouse RAW264.7 cells were grown in 0.5 ml medium in 48-wells plate until 80% confluence was obtained. […] (1% sulfanilamide, 0.1% naphthylethylenediamine dihydrochloride, 5% H3PO4). Absorbance was read at 540 nm after 10 min using SPECTRAFluor Plus spectrophotometer (TECAN, UK).
To further characterize the TLR9 activating features of mEN101, mEN101 was applied to RAW264.7 cells (n=4 repeats) for 24 hours and the subsequent production of inflammatory markers was quantified. […] Addition of chloroquine (CQ), a weak base that perturbs endosomal pH and thus disturbs endosomal maturation, as well as the specific TLR9 inhibiting oligonucleotides ODN2088 and ODN TTAGGG (17), all blocked the 10 μM mEN101-driven increases in NO (p<0.015) (FIG. 2A). Thus, both gain and loss of function tests validated the nature of mEN101 as an endosomally active TLR9 activator, albeit a weak one.

RAW264.7 cells [2] = assay: RT-PCR of inflammatory genes in RAW264.7 cells (Table 2); format: cell-based, mouse
Protocol: Real-time PCR (RT-PCR): Brains were dissected and tissues stored frozen at −70° C. until use. Hippocampal RNA was extracted using the RNeasy Tissue Mini Kit (Qiagen, Germany). Total RNA was reverse-transcribed (200 ng) using Impromp-II reverse transcriptase (Promega, Madison, Wis.) as instructed. RT-PCR was performed using Power SYBR®Green PCR Master Mix (Applied Biosystems, UK) in a 7900 HT Sequence Detection System (Applied Biosystems, Foster City, Calif.). Quantification was assessed at the logarithmic phase of the PCR reaction. The PCR annealing temperature was 60° C. for all primer pairs. GAPDH was used as a house-keeping gene.
Shown are fold differences in RT-PCR products of RAW264.7 cells incubated with the noted doses of mEN101 or ODN1826. Note that ODN1826 affects IL1α, -1β, -6, -10, -12 and ICAM-1 gene expression at concentrations as low as 10 nM, whereas considerably higher doses of mEN101 are needed to attain similar effects. Nevertheless, mEN101 affects inflammatory gene expression even at 10 nM. 1 μg/ml LPS was used as positive control. (n=3, p<0.05 Mann-Whitney U-test compared to untreated controls, for all the data shown).

5′-TCCATGACGTTCCTGACGTT-3′ [ODN1826, reference compound]
concentration reaching saturation levels of NO production (RAW264.7 cells [1]): 100 nM | lowest concentration inducing massive NO production (RAW264.7 cells [1]): 10 nM | ICAM-1 RT-PCR product (RAW264.7 cells [2]; 10 nM): −3.57 log2 from NT | IL1a RT-PCR product (RAW264.7 cells [2]; 10 nM): 4.18 log2 from NT | IL1b RT-PCR product (RAW264.7 cells [2]; 10 nM): 4.40 log2 from NT | IL6 RT-PCR product (RAW264.7 cells [2]; 10 nM): 3.57 log2 from NT | IL10 RT-PCR product (RAW264.7 cells [2]; 10 nM): 3.74 log2 from NT | IL12 RT-PCR product (RAW264.7 cells [2]; 10 nM): 3.57 log2 from NT | ICAM-1 RT-PCR product (RAW264.7 cells [2]; 100 nM): −3.14 log2 from NT | IL1a RT-PCR product (RAW264.7 cells [2]; 100 nM): 5.33 log2 from NT | IL1b RT-PCR product (RAW264.7 cells [2]; 100 nM): 5.63 log2 from NT | IL6 RT-PCR product (RAW264.7 cells [2]; 100 nM): 3.71 log2 from NT | IL10 RT-PCR product (RAW264.7 cells [2]; 100 nM): 4.28 log2 from NT | IL12 RT-PCR product (RAW264.7 cells [2]; 100 nM): 4.28 log2 from NT
